Earlier results as cited in patent US7147875B2, “Method and composition for relieving symptoms of arthritis and gout using fruit of miracles” (priority 2004, dated 2006).

COc1cc2c(c(OC)c1OC)-c1ccc(OC)c(=O)cc1[C@@H](NC(C)=O)CC2 [colchicine]
Time until the pain is completely relieved (from starting treatment): 48 h | Time until the pain subsides (from starting treatment): ≤ 12 h | Reducing pain, swelling and inflammation associated with acute gout attacks (in vivo): effective | Uric acid levels in the bloodstream (in vivo): does not decrease
